Holding throughout (assay): relative viability (nuclei count vs DMSO), 5 days (fraction); higher = more cells survive
Compound in the test “FH535 + Pemetrexed”: CC1=C(C=CC(=C1)[N+](=O)[O-])NS(=O)(=O)C2=C(C=CC(=C2)Cl)Cl [FH535] + Nc1nc2[nH]cc(CCc3ccc(C(=O)N[C@@H](CCC(=O)O)C(=O)O)cc3)c2c(=O)[nH]1 [Pemetrexed] (partner 0.2 µM)
In outline: (§1)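 After 5 days of treatment, lung cancer cells in 1536-well plates were fixed and stained in a single step (final 0.05% Triton X-100, 1% formaldehyde, 1 ug/ml Hoechst) and their nuclei counted on 4× images. Treatment had been applied by pin tool the day after seeding as one drug alone or as a fixed anchor-drug dose with five library-drug doses (not always all listed) in √10 steps. Relative viability is the nuclei count of treated wells divided by that of vehicle wells, and values are medians of duplicate plates.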

Compound in the test “FH535 + Palbociclib”: CC1=C(C=CC(=C1)[N+](=O)[O-])NS(=O)(=O)C2=C(C=CC(=C2)Cl)Cl [FH535] + CC(=O)c1c(C)c2cnc(Nc3ccc(N4CCNCC4)cn3)nc2n(C2CCCC2)c1=O [Palbociclib] (partner 0.5 µM)
The procedure, abridged:
as §1

Compound in the test “FH535 + OSI-027”: CC1=C(C=CC(=C1)[N+](=O)[O-])NS(=O)(=O)C2=C(C=CC(=C2)Cl)Cl [FH535] + COc1cccc2cc(-c3nc([C@H]4CC[C@H](C(=O)O)CC4)n4ncnc(N)c34)[nH]c12 [OSI-027] (partner 0.5 µM)
The procedure, abridged:
as §1

Compound in the test “FH535 + Bortezomib”: CC1=C(C=CC(=C1)[N+](=O)[O-])NS(=O)(=O)C2=C(C=CC(=C2)Cl)Cl [FH535] + CC(C)C[C@H](NC(=O)[C@H](Cc1ccccc1)NC(=O)c1cnccn1)B(O)O [Bortezomib] (partner 0.002 µM)
The procedure, abridged:
as §1

Compound in the test “FH535 + Tozasertib”: CC1=C(C=CC(=C1)[N+](=O)[O-])NS(=O)(=O)C2=C(C=CC(=C2)Cl)Cl [FH535] + Cc1cc(Nc2cc(N3CCN(C)CC3)nc(Sc3ccc(NC(=O)C4CC4)cc3)n2)n[nH]1 [Tozasertib] (partner 0.1 µM)
The procedure, abridged:
as §1

With NCI-H1355, the relative viability with FH535 + Pemetrexed (first compound 0.04 µM) worked out at 1.03; with FH535 + Pemetrexed (first compound 0.1265 µM), 1.05; with FH535 + Pemetrexed (first compound 0.4 µM), 0.984; with FH535 + Pemetrexed (first compound 1.265 µM) it was 0.91; with FH535 + Palbociclib (first compound 0.04 µM) it was 0.394; in the test with FH535 + Palbociclib (first compound 0.1265 µM), 0.436. Besides, the relative viability with FH535 + Palbociclib (first compound 0.4 µM) amounted to 0.4; with FH535 + Palbociclib (first compound 1.265 µM), 0.324; with FH535 + OSI-027 (first compound 0.04 µM) it was 0.366; with FH535 + OSI-027 (first compound 0.1265 µM), 0.466; with FH535 + OSI-027 (first compound 0.4 µM), 0.349; with FH535 + OSI-027 (first compound 1.265 µM) it was 0.303. Further, the relative viability in the test with FH535 + Bortezomib (first compound 0.04 µM) worked out at 1.09; with FH535 + Bortezomib (first compound 0.1265 µM), 1.2; in the test with FH535 + Bortezomib (first compound 0.4 µM) it was 1.15; with FH535 + Bortezomib (first compound 1.265 µM), 1.03; in the test with FH535 + Tozasertib (first compound 0.04 µM), 0.507; with FH535 + Tozasertib (first compound 0.1265 µM), 0.584. Also, the relative viability with FH535 + Tozasertib (first compound 0.4 µM) worked out at 0.557; in the test with FH535 + Tozasertib (first compound 1.265 µM) it was 0.399.

As for NCI-H520, the relative viability in the test with FH535 + Pemetrexed (first compound 0.04 µM) was 0.737; in the test with FH535 + Pemetrexed (first compound 0.1265 µM), 0.818; with FH535 + Pemetrexed (first compound 0.4 µM) it was 0.585; in the test with FH535 + Pemetrexed (first compound 1.265 µM) it was 0.659; with FH535 + Palbociclib (first compound 0.04 µM), 0.205; with FH535 + Palbociclib (first compound 0.1265 µM), 0.248. Moreover, the relative viability in the test with FH535 + Palbociclib (first compound 0.4 µM) worked out at 0.182; with FH535 + Palbociclib (first compound 1.265 µM), 0.246; in the test with FH535 + OSI-027 (first compound 0.04 µM), 0.199; in the test with FH535 + OSI-027 (first compound 0.1265 µM) it was 0.286; with FH535 + OSI-027 (first compound 0.4 µM), 0.296; with FH535 + OSI-027 (first compound 1.265 µM), 0.192. Also, the relative viability with FH535 + Bortezomib (first compound 0.04 µM) is 0.304; with FH535 + Bortezomib (first compound 0.1265 µM) it was 0.239; with FH535 + Bortezomib (first compound 0.4 µM) it was 0.522; with FH535 + Bortezomib (first compound 1.265 µM) it was 0.601; in the test with FH535 + Tozasertib (first compound 0.04 µM), 0.375; in the test with FH535 + Tozasertib (first compound 0.1265 µM), 0.44. Further, the relative viability in the test with FH535 + Tozasertib (first compound 0.4 µM) was determined as 0.393; with FH535 + Tozasertib (first compound 1.265 µM), 0.401.

As to NCI-H1993, the relative viability with FH535 + Pemetrexed (first compound 0.04 µM) came to 0.539; with FH535 + Pemetrexed (first compound 0.1265 µM), 0.611; with FH535 + Pemetrexed (first compound 0.4 µM) it was 0.523; with FH535 + Pemetrexed (first compound 1.265 µM) it was 0.463; with FH535 + Palbociclib (first compound 0.04 µM), 0.651; in the test with FH535 + Palbociclib (first compound 0.1265 µM) it was 0.661. Also, the relative viability with FH535 + Palbociclib (first compound 0.4 µM) amounted to 0.592; with FH535 + Palbociclib (first compound 1.265 µM) it was 0.415; in the test with FH535 + OSI-027 (first compound 0.04 µM), 0.556; with FH535 + OSI-027 (first compound 0.1265 µM), 0.522; with FH535 + OSI-027 (first compound 0.4 µM), 0.531; with FH535 + OSI-027 (first compound 1.265 µM), 0.617. The relative viability in the test with FH535 + Bortezomib (first compound 0.04 µM) was determined as 1.01; in the test with FH535 + Bortezomib (first compound 0.1265 µM) it was 0.927; with FH535 + Bortezomib (first compound 0.4 µM), 0.895; with FH535 + Bortezomib (first compound 1.265 µM) it was 0.811; with FH535 + Tozasertib (first compound 0.04 µM), 0.53; in the test with FH535 + Tozasertib (first compound 0.1265 µM), 0.596. The relative viability is 0.551 with FH535 + Tozasertib (first compound 0.4 µM) and 0.472 with FH535 + Tozasertib (first compound 1.265 µM).

Consider ChaGo-K-1, for which the relative viability was found to be 0.259 in the test with FH535 + Pemetrexed (first compound 0.04 µM); 0.237 in the test with FH535 + Pemetrexed (first compound 0.1265 µM); 0.273 with FH535 + Pemetrexed (first compound 0.4 µM); 0.255 with FH535 + Pemetrexed (first compound 1.265 µM); 0.893 with FH535 + Palbociclib (first compound 0.04 µM); 0.946 in the test with FH535 + Palbociclib (first compound 0.1265 µM). Further, the relative viability with FH535 + Palbociclib (first compound 0.4 µM) amounted to 0.888; in the test with FH535 + Palbociclib (first compound 1.265 µM), 0.531; with FH535 + OSI-027 (first compound 0.04 µM) it was 0.479; with FH535 + OSI-027 (first compound 0.1265 µM), 0.596; with FH535 + OSI-027 (first compound 0.4 µM) it was 0.507; in the test with FH535 + OSI-027 (first compound 1.265 µM), 0.432. Also, the relative viability in the test with FH535 + Bortezomib (first compound 0.04 µM) stood at 0.915; with FH535 + Bortezomib (first compound 0.1265 µM), 1.24; with FH535 + Bortezomib (first compound 0.4 µM), 0.95; with FH535 + Bortezomib (first compound 1.265 µM), 0.589; with FH535 + Tozasertib (first compound 0.04 µM), 0.225; with FH535 + Tozasertib (first compound 0.1265 µM), 0.236. For the same cell line, the results for the relative viability with FH535 + Tozasertib (first compound 0.4 µM) and in the test with FH535 + Tozasertib (first compound 1.265 µM) were 0.216 and 0.202, respectively.

On to HCC-15, for which the relative viability with FH535 + Pemetrexed (first compound 0.04 µM) was determined as 0.256; with FH535 + Pemetrexed (first compound 0.1265 µM), 0.216; in the test with FH535 + Pemetrexed (first compound 0.4 µM), 0.229; with FH535 + Pemetrexed (first compound 1.265 µM) it was 0.212; in the test with FH535 + Palbociclib (first compound 0.04 µM), 0.651; with FH535 + Palbociclib (first compound 0.1265 µM) it was 0.781. Also, the relative viability was 0.639 with FH535 + Palbociclib (first compound 0.4 µM); 0.523 in the test with FH535 + Palbociclib (first compound 1.265 µM); 0.554 with FH535 + OSI-027 (first compound 0.04 µM); 0.631 in the test with FH535 + OSI-027 (first compound 0.1265 µM); 0.574 in the test with FH535 + OSI-027 (first compound 0.4 µM); 0.463 in the test with FH535 + OSI-027 (first compound 1.265 µM). The relative viability with FH535 + Bortezomib (first compound 0.04 µM) is 0.975; with FH535 + Bortezomib (first compound 0.1265 µM) it was 0.874; in the test with FH535 + Bortezomib (first compound 0.4 µM), 0.896; with FH535 + Bortezomib (first compound 1.265 µM) it was 0.713; with FH535 + Tozasertib (first compound 0.04 µM), 0.457; with FH535 + Tozasertib (first compound 0.1265 µM) it was 0.414. The relative viability with FH535 + Tozasertib (first compound 0.4 µM) is 0.409; with FH535 + Tozasertib (first compound 1.265 µM) it was 0.482.

Turning to NCI-H2347, the relative viability with FH535 + Pemetrexed (first compound 0.04 µM) was found to be 0.523; with FH535 + Pemetrexed (first compound 0.1265 µM), 0.405; in the test with FH535 + Pemetrexed (first compound 0.4 µM), 0.43; in the test with FH535 + Pemetrexed (first compound 1.265 µM) it was 0.41; with FH535 + Palbociclib (first compound 0.04 µM) it was 0.456; in the test with FH535 + Palbociclib (first compound 0.1265 µM), 0.342. In addition, the relative viability amounted to 0.416 with FH535 + Palbociclib (first compound 0.4 µM); 0.397 in the test with FH535 + Palbociclib (first compound 1.265 µM); 0.405 with FH535 + OSI-027 (first compound 0.04 µM); 0.486 with FH535 + OSI-027 (first compound 0.1265 µM); 0.306 with FH535 + OSI-027 (first compound 0.4 µM); 0.37 in the test with FH535 + OSI-027 (first compound 1.265 µM). The relative viability was 0.843 with FH535 + Bortezomib (first compound 0.04 µM); 1 with FH535 + Bortezomib (first compound 0.1265 µM); 1.02 in the test with FH535 + Bortezomib (first compound 0.4 µM); 0.627 with FH535 + Bortezomib (first compound 1.265 µM); 0.633 with FH535 + Tozasertib (first compound 0.04 µM); 0.461 in the test with FH535 + Tozasertib (first compound 0.1265 µM). Besides, the relative viability with FH535 + Tozasertib (first compound 0.4 µM) stood at 0.522; with FH535 + Tozasertib (first compound 1.265 µM), 0.631.

Regarding NCI-H1395, the relative viability in the test with FH535 + Pemetrexed (first compound 0.04 µM) came out at 0.768; with FH535 + Pemetrexed (first compound 0.1265 µM) it was 0.854; with FH535 + Pemetrexed (first compound 0.4 µM), 0.829; with FH535 + Pemetrexed (first compound 1.265 µM) it was 0.773; with FH535 + Palbociclib (first compound 0.04 µM), 0.599; with FH535 + Palbociclib (first compound 0.1265 µM) it was 0.735. The relative viability with FH535 + Palbociclib (first compound 0.4 µM) turned out to be 0.63; with FH535 + Palbociclib (first compound 1.265 µM), 0.561; in the test with FH535 + OSI-027 (first compound 0.04 µM), 0.581; with FH535 + OSI-027 (first compound 0.1265 µM), 0.613; with FH535 + OSI-027 (first compound 0.4 µM) it was 0.61; with FH535 + OSI-027 (first compound 1.265 µM) it was 0.476. The relative viability with FH535 + Tozasertib (first compound 0.04 µM) worked out at 0.68; with FH535 + Tozasertib (first compound 0.1265 µM), 0.872; with FH535 + Tozasertib (first compound 0.4 µM), 0.774; with FH535 + Tozasertib (first compound 1.265 µM) it was 0.678.
